Reference: US9090596B2, “Disubstituted 3,4-diamino-3-cyclobutene-1,2-dione compounds for use in the treatment of chemokine-mediated pathologies” (GALDERMA RESEARCH & DEVELOPMENT, priority 2011, dated 2015)

Columns and labels:
CXCR1 receptor = CXCR1 receptor (Homo sapiens (Human), UniProt P25024); assay: β-arrestin 2 recruitment test, U2OS hCXCR1 β-arrestin cells stimulated with CXCL8; assay type: cell-based; conditions: CXCL8 stimulation
Protocol: (§1) The in vitro affinity of the compounds of the present invention for the CXCR1 and CXCR2 receptors was determined on a functional test of the β-arrestin recruitment type after receptor activation.
(§2) β-Arrestin Recruitment Assay:
(§3) “PathHunter HEK293-CXCR2” or “U2OS hCXCR1 β-arrestin” cells (DiscoveRx Corporation) were seeded overnight at 10 000 cells/well (384-well format) in 20 μl of Opti MEM I medium. A preincubation with the antagonist or the vehicle for 30 min at 37° C. and 5% CO2 was followed by 60 minutes of stimulation with CXCL8 at 37° C. and 5% CO2. The cells were then placed at ambient temperature for 30 minutes. The PathHunter detection reagent (DiscoveRx Corporation) was added. […] The data were analyzed by means of a non-linear curve procedure using the XLFit4 exploitation software (IDBS) and the IC50 values were determined.

CXCR2 receptor = CXCR2 receptor (Homo sapiens (Human), UniProt P25025); assay: β-arrestin 2 recruitment test, PathHunter HEK293-CXCR2 cells stimulated with CXCL8; assay type: cell-based; conditions: CXCL8 stimulation
Chain of CXCR2 receptor (P25025 whole entry): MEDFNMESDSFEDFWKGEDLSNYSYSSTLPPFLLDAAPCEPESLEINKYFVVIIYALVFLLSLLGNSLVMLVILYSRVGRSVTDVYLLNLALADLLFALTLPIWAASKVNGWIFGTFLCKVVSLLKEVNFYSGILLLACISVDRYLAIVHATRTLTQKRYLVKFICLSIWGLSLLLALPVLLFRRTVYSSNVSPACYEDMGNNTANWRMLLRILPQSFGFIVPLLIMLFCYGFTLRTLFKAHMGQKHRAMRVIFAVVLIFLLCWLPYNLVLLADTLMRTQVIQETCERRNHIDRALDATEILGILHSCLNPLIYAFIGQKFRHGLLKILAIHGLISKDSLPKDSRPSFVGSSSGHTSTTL
Protocol: as §1, §2, §3

CCR4 = CCR4 (Homo sapiens (Human), UniProt P51679); assay: Receptor profiling: calcium flux (FLIPR TETRA) on Chem-1 cells expressing chemokine receptor; assay type: cell-based; set-up: key to IC50 CCR4: IA: Inactive; conditions: antagonist activity, reference agonist at AC80
Chain of CCR4 (P51679 whole entry): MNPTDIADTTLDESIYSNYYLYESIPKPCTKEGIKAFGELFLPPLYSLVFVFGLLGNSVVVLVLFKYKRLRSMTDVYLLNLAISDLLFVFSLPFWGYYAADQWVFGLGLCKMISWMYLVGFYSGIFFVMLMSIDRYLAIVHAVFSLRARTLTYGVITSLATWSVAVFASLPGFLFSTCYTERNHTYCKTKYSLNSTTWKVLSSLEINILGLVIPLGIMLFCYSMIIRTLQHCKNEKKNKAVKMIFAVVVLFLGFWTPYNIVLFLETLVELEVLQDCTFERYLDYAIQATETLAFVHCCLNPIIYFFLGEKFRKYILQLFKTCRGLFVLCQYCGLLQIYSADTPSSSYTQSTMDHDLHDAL
Protocol: (§4) Measurement of Calcium Flux on Cells:
(§5) The experiments were carried out on the FLIPR TETRA® platform from Molecular Devices. After the basal level had been read, the compounds were added to the cells expressing the chemokine receptor of interest and the agonist activity was read at 10 seconds.
(§6) Each cell line expressing a chemokine receptor was established on the basis of the Chem-1 cell stably expressing the recombinant form of the chemokine receptor and also an associated G protein, with the aim of coupling the receptor to the calcium signalling pathway. 21 receptors belonging to the chemokine receptor family (CCRs and CXCRs) were analyzed. All the CXCR2 antagonists were tested in a dose-dependent manner and the concentration corresponding to 50% inhibition of the response was determined (IC50).

CXCR3 = CXCR3 (Homo sapiens (Human), UniProt P49682); assay: as above; assay type: cell-based; conditions: antagonist activity, reference agonist at AC80
Chain of CXCR3 (P49682 whole entry): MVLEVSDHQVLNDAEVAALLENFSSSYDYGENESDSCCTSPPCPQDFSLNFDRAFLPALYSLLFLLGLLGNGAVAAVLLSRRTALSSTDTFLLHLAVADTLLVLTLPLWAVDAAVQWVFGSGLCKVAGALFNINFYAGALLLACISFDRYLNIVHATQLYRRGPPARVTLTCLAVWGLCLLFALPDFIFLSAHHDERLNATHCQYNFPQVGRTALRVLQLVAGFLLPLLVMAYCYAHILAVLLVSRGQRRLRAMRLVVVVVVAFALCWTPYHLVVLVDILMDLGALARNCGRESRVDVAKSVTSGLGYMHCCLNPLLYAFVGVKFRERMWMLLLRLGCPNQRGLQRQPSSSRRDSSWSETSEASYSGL
Protocol: as §4, §5, §6

Chain of CXCR1 receptor (P25024 whole entry): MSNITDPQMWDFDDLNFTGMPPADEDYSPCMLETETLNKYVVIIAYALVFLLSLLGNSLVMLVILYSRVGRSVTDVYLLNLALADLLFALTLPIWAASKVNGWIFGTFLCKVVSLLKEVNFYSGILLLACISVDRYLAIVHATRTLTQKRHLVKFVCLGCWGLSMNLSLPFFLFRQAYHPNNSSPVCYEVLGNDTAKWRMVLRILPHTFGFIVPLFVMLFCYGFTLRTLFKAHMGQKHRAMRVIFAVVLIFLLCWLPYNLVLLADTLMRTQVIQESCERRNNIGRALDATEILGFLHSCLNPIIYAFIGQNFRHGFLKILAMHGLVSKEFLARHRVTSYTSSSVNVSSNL

SMILES: Cc1ccc(C(Nc2c(Nc3cccc(C(=O)N(C)C)c3O)c(=O)c2=O)C2(CF)COC2)o1 (stereo not shown) [Example 2, 3-(2-{[(3-fluoromethyloxetan-3-yl)-(5-methyl-furan-2-yl)methyl}amino]-3,4-dioxocyclobut-1-enylamino)-2-hydroxy-N,N-dimethylbenzamide]
- IC50 (CXCR1 receptor): 1600 nM
- IC50 (CXCR2 receptor): 272 nM
- melting point: 186 to 188 °C

SMILES: Cc1ccc(C(Nc2c(Nc3cccc(C(=O)N4CCC[C@@H]4C(=O)OC(C)(C)C)c3O)c(=O)c2=O)C2(C)COC2)o1 (stereo partly drawn) [Example 7, (R)-1-[2-hydroxy-3-(2-{[(5-methylfuran-2-yl)-(3-methyloxetan-3-yl)methyl]amino}-3,4-dioxocyclobut-1-enylamino)benzoyl]pyrrolidine-2-carboxylic acid tert-butyl ester]
- IC50 (CXCR1 receptor): 2410 nM
- IC50 (CXCR2 receptor): 100 nM
- melting point: 162 to 164 °C

SMILES: COC(=O)[C@H]1CCCN1C(=O)c1cccc(Nc2c(N[C@@H](c3ccc(C)o3)C3(C)COC3)c(=O)c2=O)c1O [Example 8, methyl (R)-1-[2-hydroxy-3-(2-{[(R)-(5-methylfuran-2-yl)-(3-methyloxetan-3-yl)methyl]amino}-3,4-dioxocyclobut-1-enylamino)benzoyl]pyrrolidine-2-carboxylate]
- IC50 CCR4 (CCR4): IA
- IC50 (CXCR1 receptor): 604 nM
- IC50 (CXCR2 receptor): 37 nM
- IC50 (CXCR3): 240 nM

SMILES: Cc1ccc(C(Nc2c(Nc3cccc(C(C)O)c3O)c(=O)c2=O)C2(C)COC2)o1 (stereo not shown) [Example 11, 3-[2-hydroxy-3-(1-hydroxyethyl)phenylamino]-4-{[(5-methylfuran-2-yl)-(3-methyloxetan-3-yl)methyl]amino}cyclobut-3-ene-1,2-dione]
- IC50 (CXCR1 receptor): 6510 nM
- IC50 (CXCR2 receptor): 549 nM
- melting point: 129 to 131 °C

SMILES: Cc1ccc(C(Nc2c(Nc3cccc(C(=O)N(C)C)c3O)c(=O)c2=O)C2(C)CN(C(=O)OC(C)(C)C)C2)o1 (stereo not shown) [Example 26, tert-butyl 3-[[2-(3-dimethylcarbamoyl-2-hydroxyphenylamino)-3,4-dioxo-cyclobut-1-enylamino]-(5-methylfuran-2-yl)methyl]-3-methylazetidine-1-carboxylate]
- melting point: 162 to 165 °C

SMILES: Cc1cc(C(Nc2c(Nc3cccc(C(=O)N(C)C)c3O)c(=O)c2=O)C2(C)COC2)oc1C (stereo not shown) [Example 27, 3-(2-{[(4,5-dimethylfuran-2-yl)-(3-methyloxetan-3-yl)methyl]amino}-3,4-dioxocyclobut-1-enylamino)-2-hydroxy-N,N-dimethylbenzamide]
- IC50 (CXCR1 receptor): 1540 nM
- IC50 (CXCR2 receptor): 244 nM
- melting point: 207 to 209 °C

SMILES: Cc1ccc(C(Nc2c(Nc3cccc(C(=O)N4CCC(O)C4)c3)c(=O)c2=O)C2(C)COC2)o1 (stereo not shown) [Example 31, 3-[3-(3-hydroxypyrrolidine-1-carbonyl)phenylamino]-4-{[(5-methylfuran-2-yl)-(3-methyloxetan-3-yl)methyl]amino}cyclobut-3-ene-1,2-dione]
- IC50 (CXCR1 receptor): 3530 nM
- IC50 (CXCR2 receptor): 716 nM
- melting point: 242 to 245 °C

SMILES: COC(=O)[C@@H]1CCCN1C(=O)c1cccc(Nc2c(NC(c3ccc(C)o3)C3(C)COC3)c(=O)c2=O)c1Cl (stereo partly drawn) [Example 46, methyl (S)-1-[2-chloro-3-(2-{[(5-methylfuran-2-yl)-(3-methyloxetan-3-yl)methyl]amino}-3,4-dioxocyclobut-1-enylamino)benzoyl]pyrrolidine-2-carboxylate]
- melting point: 148 to 158 °C

SMILES: Cc1ccc([C@H](Nc2c(Nc3cccc(C(=O)N(C)C)c3O)c(=O)c2=O)C2(C)COC2)o1 [Example 50, 2-hydroxy-N,N-dimethyl-3-(2-{[((R)-5-methylfuran-2-yl)-(3-methyloxetan-3-yl)methyl]amino}-3,4-dioxocyclobut-1-enylamino)benzamide]
- IC50 (CXCR3): 700 nM
